Key:
Type in all cases: biochemical
TYK2 = target: T1, TYK2 (Homo sapiens, UniProt P29597); assay: TYK2 inhibition (Table 4)
T1 construct: made in house; host or cells: SF9 insect cells (baculovirus)
T1 sequence (P29597 873-1187): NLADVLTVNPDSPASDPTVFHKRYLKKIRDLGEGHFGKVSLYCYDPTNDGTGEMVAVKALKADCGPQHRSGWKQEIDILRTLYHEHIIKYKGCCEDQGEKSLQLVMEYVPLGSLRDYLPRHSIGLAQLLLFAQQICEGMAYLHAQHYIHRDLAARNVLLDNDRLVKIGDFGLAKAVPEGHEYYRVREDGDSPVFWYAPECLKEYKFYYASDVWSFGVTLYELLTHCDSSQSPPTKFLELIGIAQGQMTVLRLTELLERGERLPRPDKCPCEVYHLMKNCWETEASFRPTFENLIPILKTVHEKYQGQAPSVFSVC

JAK2 = target: T2, JAK2 (Homo sapiens, UniProt O60674); assay: JAK2 inhibition (Table 4); settings: read-out: JAK2 Ki
T2 construct: made in house; host or cells: SF9 insect cells (baculovirus)

JAK3 = target: T3, JAK3 (Homo sapiens, UniProt P52333); assay: JAK3 inhibition (Table 4); settings: read-out: JAK3 Ki
T3 construct: made in house; host or cells: SF9 insect cells (baculovirus)

JAK1 = target: T4, JAK1 (Homo sapiens, UniProt P23458); assay: JAK1 inhibition (Table 4); settings: read-out: JAK1 Ki
T4 construct: made in house; host or cells: SF9 insect cells (baculovirus)
T4 sequence (P23458 852-1154): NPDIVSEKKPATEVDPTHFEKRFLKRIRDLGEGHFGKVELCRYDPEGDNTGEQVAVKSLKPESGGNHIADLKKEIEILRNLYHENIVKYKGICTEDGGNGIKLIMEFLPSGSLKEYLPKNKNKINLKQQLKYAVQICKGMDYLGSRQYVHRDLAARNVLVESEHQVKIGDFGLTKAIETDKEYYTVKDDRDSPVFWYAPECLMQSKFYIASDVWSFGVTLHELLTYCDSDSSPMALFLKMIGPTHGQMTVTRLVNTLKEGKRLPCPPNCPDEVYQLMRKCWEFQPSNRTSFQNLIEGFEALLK

T3 sequence (P52333 783-1124): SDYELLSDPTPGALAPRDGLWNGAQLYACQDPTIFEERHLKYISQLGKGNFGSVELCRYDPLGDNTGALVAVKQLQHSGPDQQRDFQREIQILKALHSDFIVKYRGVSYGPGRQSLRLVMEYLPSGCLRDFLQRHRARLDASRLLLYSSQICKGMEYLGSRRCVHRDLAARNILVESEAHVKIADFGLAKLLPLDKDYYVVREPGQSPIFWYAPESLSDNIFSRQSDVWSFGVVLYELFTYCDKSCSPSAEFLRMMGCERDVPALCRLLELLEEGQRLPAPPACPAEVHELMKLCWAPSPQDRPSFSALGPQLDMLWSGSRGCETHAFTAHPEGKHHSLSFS
T2 sequence (O60674 812-1132): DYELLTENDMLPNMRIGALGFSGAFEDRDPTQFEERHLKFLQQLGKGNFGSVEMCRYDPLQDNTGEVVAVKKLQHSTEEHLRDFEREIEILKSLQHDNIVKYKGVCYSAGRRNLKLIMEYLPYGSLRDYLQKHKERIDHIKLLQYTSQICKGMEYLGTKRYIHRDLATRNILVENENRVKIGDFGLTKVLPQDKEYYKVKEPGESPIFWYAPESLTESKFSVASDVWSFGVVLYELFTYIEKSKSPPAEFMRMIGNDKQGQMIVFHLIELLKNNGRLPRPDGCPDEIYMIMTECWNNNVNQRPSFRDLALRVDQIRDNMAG

| Ki (TYK2) [nM] | Ki (JAK2) [nM] | Ki (JAK3) [nM] | Ki (JAK1) [nM] | SMILES |
| --- | --- | --- | --- | --- |
| 39.2 | 60.9 | 110 | 6.94 | CC(C)(C)OC(=O)N1CCC(N[C@H]2CC[C@H](n3cnc4cnc5[nH]ccc5c43)CC2)CC1 [Example 558, trans 4-[4-(6H-1,3,5,6-Tetraaza-as-indacen-1-yl)-cyclohexylamino]-piperidine-1-carboxylic acid tert-butyl ester] |
| 3320 | 611 | 2360 | 91 | CC(C)(C)OC(=O)N1CCCC[C@@H]1CN[C@H]1CC[C@H](n2cnc3cnc4[nH]ccc4c32)CC1 [Example 563, trans (R)-2-{[4-(6H-1,3,5,6-Tetraaza-as-indacen-1-yl)-cyclohexylamino]-methyl}-piperidine-1-carboxylic acid tert-butyl ester] |
| 1950 | 397 | 1050 | 90.8 | CC(C)(C)OC(=O)N1CCC[C@H](CN[C@H]2CC[C@H](n3cnc4cnc5[nH]ccc5c43)CC2)C1 [Example 565, trans (R)-3-{[4-(6H-1,3,5,6-Tetraaza-as-indacen-1-yl)-cyclohexylamino]-methyl}-piperidine-1-carboxylic acid tert-butyl ester] |
| 260 | 186 | 498 | 20.5 | CC(C)(C)OC(=O)N1CCC[C@@H](CN[C@H]2CC[C@H](n3cnc4cnc5[nH]ccc5c43)CC2)C1 [Example 566, trans (S)-3-{[4-(6H-1,3,5,6-Tetraaza-as-indacen-1-yl)-cyclohexylamino]-methyl}-piperidine-1-carboxylic acid tert-butyl ester] |
| 65.2 | 48.6 | 59.8 | 2.91 | N#CCN1CCC(N[C@H]2CC[C@H](n3cnc4cnc5[nH]ccc5c43)CC2)CC1 [Example 568, trans {4-[4-(6H-1,3,5,6-Tetraaza-as-indacen-1-yl)-cyclohexylamino]-piperidin-1-yl}-acetonitrile] |
| 254 | 95.8 | 448 | 12.7 | CC(C)CN[C@H]1CC[C@H](n2cnc3cnc4[nH]ccc4c32)CC1 [Example 569, trans Isobutyl-[4-(6H-1,3,5,6-tetraaza-as-indacen-1-yl)-cyclohexyl]-amine] |
| 77.7 | 10 | 116 | 11.2 | O=C(N[C@H]1CC[C@H](n2cnc3cnc4[nH]ccc4c32)CC1)c1ccncc1 [Example 570, trans N-[4-(6H-1,3,5,6-Tetraaza-as-indacen-1-yl)-cyclohexyl]-isonicotinamide] |
| 119 | 27 | 201 | 11.6 | O=C(N[C@H]1CC[C@H](n2cnc3cnc4[nH]ccc4c32)CC1)C1CC1 [Example 572, trans Cyclopropanecarboxylic acid [4-(6H-1,3,5,6-tetraaza-as-indacen-1-yl)-cyclohexyl]-amide] |
| 91.5 | 10.7 | 69.5 | 4.62 | COCCC(=O)N[C@H]1CC[C@H](n2cnc3cnc4[nH]ccc4c32)CC1 [Example 573, trans 3-Methoxy-N-[4-(6H-1,3,5,6-tetraaza-as-indacen-1-yl)-cyclohexyl]-propionamide] |
| 44.7 | 34 | 206 | 7.17 | Cn1cncc1CN[C@H]1CC[C@H](n2cnc3cnc4[nH]ccc4c32)CC1 [Example 575, trans (3-Methyl-3H-imidazol-4-ylmethyl)-[4-(6H-1,3,5,6-tetraaza-as-indacen-1-yl)-cyclohexyl]-amine] |
| 329 | 483 | 1360 | 106 | CC1(n2cnc3cnc4[nH]ccc4c32)CCN(C(=O)CC#N)CC1 [Example 579, 3-[4-Methyl-4-(6H-1,2,3,5,6-tetraaza-as-indacen-1-yl)-piperidin-1-yl]-3-oxo-propionitrile] |

— patent US8461328B2, “Tricyclic heterocyclic compounds, compositions and methods of use thereof” (Genentech, Inc., priority 2010, dated 2013)
